Data set [1] concerns the target T1, recombinant human 5-HT6 receptor (Homo sapiens, UniProt P50406).
T1 construct: expressed in transfected cells
The data set is described as follows: Radioligand binding studies, 5-HT6 ligand affinity ([3H]LSD competition). The following applies: [3H]LSD displacement, membranes of HEK293 cells expressing the receptor, pH 7.4, 37° C.; read-out: pKi for the 5-HT6 receptor (converted). As for the experimental part:
(§1) This example illustrates in vitro radioligand binding studies of compound of formula I.
(§2) The binding activity of compounds of this invention in vitro was determined as follows. Duplicate determinations of 5-HT6 ligand affinity were made by competing for binding of [^3H]LSD in cell membranes derived from HEK293 cells stably expressing recombinant human 5-HT6 receptor. Duplicate determinations of 5-HT2A ligand affinity were made by competing for binding of [^3H]Ketanserin (3-(2-(4-(4-fluorobenzoyl)piperidinol)ethyl)-2,4(1H,3H)-quinazolinedione) in cell membranes derived from CHO-K1 cells stably expressing recombinant human 5-HT2A receptor. Membranes were prepared from HEK 293 cell lines by the method described by Monsma et al., Molecular Pharmacology, Vol. 43 pp. 320-327 (1993), and from CHO-K1 cell lines as described by Bonhaus et al., Br J. Pharmacol. June; 115(4):622-8 (1995).
(§3) For estimation of affinity at the 5-HT6 receptor, all determinations were made in assay buffer containing 50 mM Tris-HCl, 10 mM MgSO4, 0.5 mM EDTA, 1 mM ascorbic acid, pH 7.4 at 37° C., in a 250 microliter reaction volume. […]
(§4) Assay tubes containing [^3H] […] LSD or [^3H]Ketanserin were determined as radioactive counts per minute using Packard TopCount.
(§5) Displacement of [^3H]LSD or [^3H]Ketanserin from the binding sites was quantified by fitting concentration-binding data to a 4-parameter logistic equation: […]

The target of data set [2] is T2, recombinant human 5-HT2A receptor (Homo sapiens, UniProt P28223).
T2 construct: expressed in transfected cells
T2 sequence (P28223 whole entry): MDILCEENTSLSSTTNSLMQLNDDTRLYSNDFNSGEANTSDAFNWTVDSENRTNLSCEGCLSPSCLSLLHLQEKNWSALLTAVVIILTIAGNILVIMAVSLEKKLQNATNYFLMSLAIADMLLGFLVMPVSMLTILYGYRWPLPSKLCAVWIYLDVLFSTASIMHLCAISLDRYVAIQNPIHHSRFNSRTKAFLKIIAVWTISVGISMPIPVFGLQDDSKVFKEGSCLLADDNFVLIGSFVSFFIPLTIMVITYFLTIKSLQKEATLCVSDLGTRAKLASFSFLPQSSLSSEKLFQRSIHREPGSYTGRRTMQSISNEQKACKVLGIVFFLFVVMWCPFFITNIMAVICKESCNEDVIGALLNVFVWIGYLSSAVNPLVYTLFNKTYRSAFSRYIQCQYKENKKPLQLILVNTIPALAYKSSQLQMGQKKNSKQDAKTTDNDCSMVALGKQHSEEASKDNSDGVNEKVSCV
As to the kind of experiment: Radioligand binding studies, 5-HT2A ligand affinity ([3H]Ketanserin competition). The following applies: [3H]Ketanserin displacement, membranes of CHO-K1 cells expressing the receptor, pH 7.4, 32° C.; read-out: pKi for the 5-HT2A receptor (converted). On the procedure:
as §1, §2, §3, §4, §5

Structures can show the parent of a compound that is named as a salt.

T1 sequence (P50406 whole entry): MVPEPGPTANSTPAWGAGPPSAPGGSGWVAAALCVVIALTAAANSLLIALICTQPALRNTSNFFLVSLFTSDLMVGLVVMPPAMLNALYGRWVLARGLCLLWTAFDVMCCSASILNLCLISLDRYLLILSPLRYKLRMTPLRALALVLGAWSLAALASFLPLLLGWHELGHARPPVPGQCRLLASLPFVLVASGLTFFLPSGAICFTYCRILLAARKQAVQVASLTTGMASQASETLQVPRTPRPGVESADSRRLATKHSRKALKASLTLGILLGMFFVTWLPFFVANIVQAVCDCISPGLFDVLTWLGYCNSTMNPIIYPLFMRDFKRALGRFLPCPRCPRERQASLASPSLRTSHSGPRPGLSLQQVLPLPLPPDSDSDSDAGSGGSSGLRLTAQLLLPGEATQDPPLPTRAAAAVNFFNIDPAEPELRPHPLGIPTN

As to `Cc1cc(S(=O)(=O)c2ccc(O)cc2)ccc1C1CCN(C)C1` (centres unmarked) (as salt: HCl) [Compound 51, 4-[3-Methyl-4-(1-methyl-pyrrolidin-3-yl)-benzenesulfonyl]-phenol], the melting point was 186 to 187.5 °C.
For `Cc1cc(S(=O)(=O)c2ccccc2)ccc1[C@@H]1CCN(S(C)(=O)=O)C1` [Compound 115, 3-(4-Benzenesulfonyl-2-methyl-phenyl)-1-methanesulfonyl-(S)-pyrrolidine], the melting point lay in the range of 56 to 58 °C.
As to `Cc1cc(S(=O)(=O)c2ccc(O)c(Cl)c2)ccc1C1CCNC1` (centres unmarked) (as salt: HCl) [Compound 32, 2-Chloro-4-(3-methyl-4-pyrrolidin-3-yl-benzenesulfonyl)-phenol], the melting point lay in the range of 110 to 112.9 °C.
Same read-out and setting: with `Cc1cc(S(=O)(=O)c2ccc(O)c(C(C)C)c2)ccc1C1CCNC1` (centres unmarked) [Compound 85, 2-Isopropyl-4-(3-methyl-4-pyrrolidin-3-yl-benzenesulfonyl)-phenol] the figure was 125 to 128 °C.
With `CN1CC[C@@H](c2ccc(S(=O)(=O)c3ccc(O)cc3)cc2F)C1` [4-[3-Fluoro-4-(1-methyl-(S)-pyrrolidin-3-yl)-benzenesulfonyl]-phenol], the Ki in data set [1] is approximately 0.1 nM.
For the compound `O=S(=O)(c1cccc(F)c1)c1ccc([C@@H]2CCNC2)c(O)c1` (as salt: HCl) [Compound 35, 5-(3-Fluoro-benzenesulfonyl)-2-(S)-pyrrolidin-3-yl-phenol], the melting point was in the range of 239 to 241 °C.
Consider `CCSc1cccc(S(=O)(=O)c2ccc(C3CCNC3)c(O)c2)c1` (centres unmarked) [5-(3-Ethylsulfanyl-benzenesulfonyl)-2-pyrrolidin-3-yl-phenol], for which the Ki in data set [2] was approximately 0.891 nM.
For the compound `CCS(=O)(=O)c1cccc(S(=O)(=O)c2ccc(C3CCNC3)c(O)c2)c1` (centres unmarked) (as salt: HCl) [Compound 20, 5-(3-Ethanesulfonyl-benzenesulfonyl)-2-pyrrolidin-3-yl-phenol], the melting point is 124.5 to 126.7 °C.

By melting point is commonly meant the temperature of the solid-liquid transition.
